Results published in patent publication US8858995B2, “Methods and compositions for controlled delivery of phytochemical agents” (priority 2008, dated 2014).
“And” between values parts separate entries of the source, which are not always exact repeats. Identical values can stand only once. Like-named read-outs stand apart in the source and are kept apart here.

How the values were obtained:
[1] = Tissue curcuminoid levels after coated implants (UPLC); type: in vivo, A/J mice; conditions: female, A/J, mouse, in vivo
Procedure: Briefly, liver and brain tissues (500 and 400 mg, respectively) from each animal were homogenized in 3 ml PBS (pH 7.4) containing 200 μl of 0.5 M sodium acetate, and extracted with ethyl acetate. After evaporation of the pooled extracts, the residue was reconstituted in 100 μl acetonitrile and analyzed by UPLC using Shimadzu UPLC system (Kyoto, Japan), with a Shim-Pack XR-ODS II reverse phase column (Shimadzu; 150×3.0 mm i.d., 2.2 μm).

[2] = tested on: B[a]P-induced DNA adducts
[3] = Effect of phytochemical agent load on in vitro release; type: physicochemical; conditions: curcumin 2, 5, 20% w/w, GTPs 1, 2.5, 5, 10% w/w
Procedure: The medium was replaced daily and the amount of curcumin released from each composition per day was measured spectrophotometrically against a standard curve and expressed as μg/day. A similar experiment was also performed to examine the effect of incorporating various amounts of GTPs into a biocompatible polymeric matrix on the in vitro release of the agents.

[4] = Plasma, liver and brain curcumin levels, implants versus diet (HPLC-fluorescence); type: in vivo, ACI rats; conditions: for plasma curcumin level: curcumin diet
Description: The in vivo cumulative release was studied in female Augustus Copenhagen Irish (ACI) rats following an approved protocol from an Institutional Animal Care and Use Committee (IACUC). […] All the animals were provided food and water ad libitum. Sham and curcumin implants were subcutaneously grafted at the back of the rats and were monitored for their diet intake and body weight. Animals were euthanized at different time intervals by asphyxiation to collect blood, liver, brain, local tissues and implants. All the tissues were snap frozen in liquid nitrogen and stored at −80° C. until further analysis.
Plasma pooled from all the animals (1.5 ml) was mixed with […] of 0.5 M sodium acetate to reduce the pH to 5. Plasma was then extracted three times with 3 ml ethyl acetate. Ethyl acetate extracts were pooled and dried under vacuum. The dried residue was reconstituted in 100 μl of acetonitrile, and one-half of the solution was analyzed by HPLC. Similarly, liver or brain tissue (approximately 500 mg) from each animal was homogenized in 3 ml PBS (pH 7.4) containing 200 μl sodium acetate (0.5 M). The homogenate was then extracted twice with two volumes of ethyl acetate. After evaporation of ethyl acetate under vacuum, the residue was reconstituted in 1 ml acetonitrile. The solution was filtered through 0.45 μm glass-microfiber filter and evaporated again under vacuum. The residue was finally reconstituted in 100 μl acetonitrile, and one-half of it was analyzed by HPLC using a Shimadzu liquid chromatography system equipped with LC-10ADVP pump, RF-10AXL fluorescence detector and a Shimadzu C18 column of 5 μm particles (250×4.6 mm). The three curcuminoids were separated by using acetonitrile and 1% citric acid (adjusted to pH 2.5) at a flow rate of 1 ml/min with a gradient elution in which acetonitrile concentration was increased from 0% to 30% in first 5 min, followed by an increase to 45% in next 5-20 min. Acetonitrile was then maintained at this ratio till 36 min. Curcuminoids were detected using 410 and 500 nm as excitation and emission maxima, respectively, in the fluorescence detector.

[5] = In vitro release from coated (and extruded) polymeric implants; type: physicochemical; conditions: 37° C., no serum
Procedure: To formulate the “coated” polymeric implants, blank P-80 implants (1.4 mm dia) were then prepared by dissolving P-80:F68 (9:1) in dichloromethane, followed by evaporation of the solvent in a Petri dish under hood and extrusion of the molten polymer through a silastic tubing mold, similar to the methodologies described herein above. […] For coating, one end of the blank implant (2.5-3.5 cm) was inserted into a silastic tube plug (6 mm long, 1.4 mm dia) while the other end of the plug was attached with a pipet tip. Coatings were then added by dipping the blank implant into the solution with intermittent drying with cool air using a commercial hair dryer and placing them under hood. […] The assembly was placed under hood overnight to remove the residual DCM, implants were excised in 1 or 2 cm lengths and stored in amber vials under argon at -20° C. until used. The rate of in vitro release for the implants was subsequently measured. […] The vials were placed in a water bath (Julabo S W 23, Seelback, Germany) at 37° C. with constant agitation at 110 rpm. The medium was changed every 24 h.

[6] = Toxicity of coated implants (body weight, hematology, liver and kidney function); type: in vivo, A/J mice
Procedure: To assess the toxicity of the implants, blood was collected separately at the time of euthanasia and hematological parameters were analyzed using whole blood by Cell Dyn 3500 hematology analyzer (Abbott laboratories, Santa Clara, Calif.). Serum was used to analyze the liver and kidney function test. An ion selective electrode was used for various electrolytes analysis and in-built spectrophotometric techniques were used for all other biochemical parameters analysis on automated AU640 Chemistry analyzed (Beckman Coulter, Inc., Brea, Calif.).

[7] = 1 cm PCL matrix with 20 mg curcumin, s.c., bolus B[a]P
[8] = dietary curcumin 400 ppm, bolus B[a]P
[9] = dietary curcumin 400 ppm, single i.p. B[a]P 50 mg/kg
[10] = female, ACI (Augustus Copenhagen Irish), rat, plasma, oral, 1000 ppm in diet

concentration at 21 days [1]: 15 ng/g
dose of curcumin delivered by the implant ([2]; bolus B[a]P study): approximately 80 μg/rat/day
amount released per day and total amount released versus amount incorporated [3]: varied proportionally
liver curcumin level ([4]; both routes (implants, diet), day 1): 25 to 30 ng
liver curcumin level ([4]; both routes, after 12 days): 10 to 15 ng
plasma curcumin level ([4]; 25 and 90 days): undetectable
plasma curcumin level ([4]; day 1): not observed
brain curcumin level ([4]; dietary administration 1000 ppm, all the time points): 2 to 3 ng/g
concentration at 1 day ([4]; female, ACI (Augustus Copenhagen Irish), rat, brain, subcutaneous, 2 2-cm curcumin implants, implant route, day 1): 30 ± 7.3 ng/g
Kp ([4]; female, ACI (Augustus Copenhagen Irish), rat, liver (against plasma), other: both routes (subcutaneous implants, diet), via both routes): 10 to 20
concentration at 4 day [4, 10]: 0.3 ng/mL and 0.815 nM
concentration at 12 days [4, 10]: 0.543 nM and 0.2 ng/mL
concentration at 3 months ([4]; female, ACI (Augustus Copenhagen Irish), rat, plasma, subcutaneous, 2 2-cm curcumin implants, implants, after 3 months): ~0.2 ng/mL and 0.543 nM
concentration at 1 day ([4]; female, ACI (Augustus Copenhagen Irish), rat, plasma, subcutaneous, 2 2-cm curcumin implants, implants, day 1): 9 nM
concentration at 4 day ([4]; female, ACI (Augustus Copenhagen Irish), rat, plasma, subcutaneous, 2 2-cm curcumin implants, implants, day 4): 1.4 ng/mL and 4 nM
concentration at 1 day ([4]; female, ACI (Augustus Copenhagen Irish), rat, subcutaneous, 2 2-cm curcumin implants, implants (two 2-cm), day 1, pooled plasma): 3.3 ng/mL
brain curcumin level ([4]; implant route, after 12 days, same levels after 90 days): around 7.26±2.45 ng/g tissue
curcumin concentration in brain tissue, implant route higher than diet ([4]; rat, in vivo): approximately 3.5 fold
plasma and liver concentrations observed in the in vivo study ([4]; rat, in vivo): 78 to 95 nM
release in PBS alone [5]: essentially no release
Compound: COc1cc(/C=C/C(=O)CC(=O)/C=C/c2ccc(O)c(OC)c2)ccc1O [curcumin]
inhibition of B[a]P-induced DNA adducts, liver [2, 7]: 48%
inhibition of B[a]P-induced DNA adducts, lung [2, 7]: 17%
DNA adduct level, liver [2, 8]: 74±110 adducts/10^9 nucleotides
DNA adduct level, lung [2, 8]: 65±53 adducts/10^9 nucleotides
inhibition of B[a]P-induced DNA adducts, liver [2, 9]: 83%
inhibition of B[a]P-induced DNA adducts, lung [2, 9]: 45%
hematological parameters, liver enzymes, biochemical parameters of kidney function versus sham implant ([6]; 3 weeks after grafting): No significant differences
body weight ([6]; s.c. polymeric implants): no effect on the body weight
